Literature values as cited in US9682109B2, “Antiviral resistance mutants and applications thereof” (ABL SA, priority 2005, dated 2017).
Where a name gives a salt, the structure may show the parent alone.

Assays:
[1] = test system: wild-type and lamivudine-resistant strains of HBV
HBV [2] = details: 30 mg daily dose, over 12 weeks, phase II studies (Heathcote et al 1998)
HBV [3] = test system: HBV

Row | SMILES | clinical activity [1] | inhibitor of HBV replication (HBV replication) | mean decrease in viremia (HBV [2]) [log10] | antiviral activity against HBV (HBV [3]) | antiviral activity against HIV (HIV)
1 | CC(C)(C)C(=O)OCOP(=O)(COCCn1cnc2c(N)ncnc21)OCOC(=O)C(C)(C)C [ADV, adefovir dipivoxil] | demonstrated clinical activity | potent inhibitor | 4 |  | 
2 | Nc1nc(=O)n([C@@H]2CS[C@H](CO)O2)cc1F [FTC, (−)-β-L-2′-3′-dideoxy-5-fluoro-3′-thiacydidine] |  |  |  | activity | activity
3 | CC(C)OC(=O)OCOP(=O)(CO[C@H](C)Cn1cnc2c(N)ncnc21)OCOC(=O)OC(C)C [TFV, tenofovir disoproxil fumarate] |  |  |  | antiviral activity | antiviral activity
